Our source for the Ki values is patent US7087757B2, “Phenyl-substituted imidazopyridines” (Ortho-McNeil Pharmaceutical, Inc., priority 2000, dated 2006).

This assay deals with T1, human histamine H3 receptor (Homo sapiens, UniProt Q9Y5N1).
T1 construct: One microgram supercoiled H3 receptor cDNA was added to the cells and mixed; expressed in transfected cells; membranes prepared from cell pellets
T1 sequence (Q9Y5N1 whole entry): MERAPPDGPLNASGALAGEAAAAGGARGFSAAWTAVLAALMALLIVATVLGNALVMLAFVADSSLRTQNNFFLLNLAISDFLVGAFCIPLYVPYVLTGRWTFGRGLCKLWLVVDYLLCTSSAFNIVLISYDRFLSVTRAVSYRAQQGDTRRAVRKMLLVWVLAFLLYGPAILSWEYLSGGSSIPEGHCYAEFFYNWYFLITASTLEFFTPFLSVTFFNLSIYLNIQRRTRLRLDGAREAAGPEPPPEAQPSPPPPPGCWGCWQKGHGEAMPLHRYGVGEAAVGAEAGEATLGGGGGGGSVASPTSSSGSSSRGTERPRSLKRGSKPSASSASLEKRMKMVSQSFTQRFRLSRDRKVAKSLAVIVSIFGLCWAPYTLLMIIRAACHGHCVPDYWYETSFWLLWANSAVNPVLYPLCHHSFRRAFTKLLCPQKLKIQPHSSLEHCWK
Put plainly: [3H]-N-methylhistamine binding. As to conditions: membranes of histamine H3 receptor-expressing SK-N-MC cells; 0.8 nM [3H]-N-methylhistamine; 45 minutes at 25° C.; Ki calculated with KD of 800 pM. As to the method: Screening using the human receptor is particularly important for the identification of new therapies for the treatment of human disease.
A 10 cm tissue culture dish with a confluent monolayer of SK-N-MC cells was split two days prior to transfection. Using sterile technique the media was removed and the cells were detached from the dish by the addition of trypsin. One fifth of the cells were then placed onto a new 10 cm dish. Cells were grown in a 37° C. incubator with 5% CO2 in Minimal Essential Media Eagle with 10% Fetal Bovine Serum. After two days cells were approximately 80% confluent. These were removed from the dish with trypsin and pelleted in a clinical centrifuge. […] One microgram supercoiled H3 receptor cDNA was added to the cells and mixed. The voltage for the electroporation was set at 0.25 kV, the capacitance is set at 960 μF.
After electroporation the cells were diluted into 10 mL complete media and plated onto four 10 cm dishes. Due to the variability in the efficiency of electroporation, four different concentrations of cells were plated. The ratios used were: 1:20, 1:10, and 1:5, with the remainder of the cells being added to the fourth dish. The cells were allowed to recover for 24 hours before adding the selection media (complete media with 600 μg/ml G418). After 10 days dishes were analyzed for surviving colonies of cells. Dishes with well-isolated colonies were used. Cells from individual colonies were isolated and tested. SK-N-MC cells were used because they give efficient coupling for inhibition of adenylate cyclase. The clones that gave the most robust inhibition of adenylate cyclase in response to histamine were used for further study.
Cell pellets from histamine H3 receptor-expressing SK-N-MC cells were homogenized in 20 mM Tris HCl/0.5 mM EDTA. Supernatants from a 800 g spin were collected, reccentrifuged at 30,000 g for 30 minutes. Pellets were rehomogenized in 50 mM Tris/5 mM EDTA (pH 7.4). Membranes were incubated with 0.8 nM [^3H]-N-methylhistamine plus/minus test compounds for 45 minutes at 25° C. and harvested by rapid filtration over GF/C glass fiber filters (pretreated with 0.3% polyethylenimine) followed by four washes with ice cold buffer. Filters were dried, added to 4 mL scintillation cocktail and then counted on a liquid scintillation counter.
As to `Cc1ccn2cc(-c3ccc(C=CCCN4CCCCC4)cc3)nc2c1` (mixture of isomers) [Example 36, (E/Z)-2-[4-[4-Piperidinobut-1-enyl]phenyl]-7-methylimidazo[1,2-a]pyridine], the Ki (usually a measure of affinity in units of concentration, obtained from inhibition or displacement) was 11 nM.
With `CCN(CC)CCNC(=O)c1ccc(-c2cn3cccc(C)c3n2)cc1` [Example 1, N-(2-Diethylamino-ethyl)-4-(8-methyl-imidazo[1,2-a]pyridin-2-yl)-benzamide], the Ki is 90 nM.
Turning to `Cc1cccn2cc(-c3ccc(C(=O)OCCN(C)C)cc3)nc12` [Example 2, 4-(8-Methyl-imidazo[1,2-a]pyridin-2-yl)-benzoic acid 2-dimethylamino-ethyl ester], the Ki is 89 nM.
With `CCN(CC)CCOC(=O)c1ccc(-c2cn3cccc(C)c3n2)cc1` [Example 3, 4-(8-Methyl-imidazo[1,2-a]pyridin-2-yl)-benzoic acid 2-diethylamino-ethyl ester] the figure was 20 nM; with `Cc1cccn2cc(-c3ccc(NC(=O)CN4CCCC4)cc3)nc12` [Example 4, N-[4-(8-Methyl-imidazo[1,2-a]pyridin-2-yl)-phenyl]-2-pyrrolidin-1-yl-acetamide], 70 nM; with `CCCN(CCC)CC(C)COc1ccc(-c2cn3cccc(C)c3n2)cc1` (stereo not drawn) [Example 5, {2-Methyl-3-[4-(8-methyl-imidazo[1,2-a]pyridin-2-yl)-phenoxy]-propyl}-dipropyl-amine], 50 nM.
For `CCN(CC)CCC(=O)Nc1ccc(-c2cn3cccc(C)c3n2)cc1` [Example 6, 3-Diethylamino-N-[4-(8-methyl-imidazo[1,2-a]pyridin-2-yl)-phenyl]-propionamide], the inhibitory constant (Ki) was 55 nM.
With `CCN(CC)CCNc1ccc(-c2cn3cccc(C)c3n2)cc1` [Example 7, N,N-Diethyl-N′-[4-(8-methyl-imidazo[1,2-a]pyridin-2-yl)-phenyl]-ethane-1,2-diamine] the figure was 4 nM; with `Cc1cc(-c2cn3cccc(C)c3n2)ccc1OCCCN1CCCCC1` [Example 9, 2-(4-Piperidinopropoxy-3-methylphenyl)-8-methylimidazo[1,2-a]pyridine], 32 nM.
For the compound `CCN(CCOc1ccc(-c2cn3ccccc3n2)cc1)c1ccccc1` [Example 10, 2-(4-(N-Ethyl)anilinoethoxyphenyl)imidazo[1,2-a]pyridine], the Ki was 611 nM.
The figure for `Cc1cc(-c2cn3ccccc3n2)ccc1OCCC1CCCN1C` (stereo not drawn) [Example 11, 2-[4-[2-(1-Methyl)-2-pyrrolidino]ethoxy-3-methylphenyl]imidazo[1,2-a]pyridine] is 7 nM.
Regarding `Cc1cc(-c2cn3ccccc3n2)ccc1OCCCN1CCCCC1` [Example 12, 2-(4-Piperidinopropoxy-3-methylphenyl)imidazo[1,2-a]pyridine], the Ki is 21 nM.
Regarding `COc1cc(-c2cn3ccc(C)cc3n2)ccc1OCCCN1CCCC1` [Example 13, 2-[3-Methoxy-4-(3-pyrrolidin-1-yl-propoxy)-phenyl]-7-methyl-imidazo[1,2-a]pyridine], the Ki was 63 nM.
With `COc1cc(-c2cn3ccc(C)cc3n2)ccc1OCCCN1CCCCCC1` [Example 14, 2-[4-(3-Azepan-1-yl-propoxy)-3-methoxy-phenyl]-7-methyl-imidazo[1,2-a]pyridine], the inhibition constant (Ki) is 34 nM.
Turning to `Cc1ccn2cc(-c3cccc(OCCCN4CCCCC4)c3)nc2c1` [Example 15, 7-Methyl-2-[3-(3-piperidin-1-yl-propoxy)-phenyl]-imidazo[1,2-a]pyridine], the Ki is 28 nM.
For `c1cc(-c2cn3c(n2)CCCC3)ccc1OCCCN1CCCCC1` [Example 16, 2-[4-(3-Piperidin-1-yl-propoxy)-phenyl]-5,6,7,8-tetrahydro-imidazo[1,2-a]pyridine], the Ki was 0.75 nM.
`Cc1cc(OCCCN2CCCCC2)ccc1-c1cn2c(n1)CC(C)CC2` (stereo not drawn) [Example 17, 7-Methyl-2-[2-methyl-4-(3-piperidin-1-yl-propoxy)-phenyl]-5,6,7,8-tetrahydro-imidazo[1,2-a]pyridine]: the Ki is 3.2 nM.
In the case of `Cc1ccn2cc(-c3ccc(OCCCN4CCCC4)cc3)nc2c1` [Example 18, 2-(4-Pyrrolidinopropoxyphenyl)-7-methylimidazo[1,2-a]pyridine], the inhibition constant Ki was 2 nM.
In the case of `Cc1ccn2cc(-c3ccc(OCCCN4CCCCCC4)cc3)nc2c1` [Example 19], the Ki was 2 nM.
With `Cc1ccn2cc(-c3ccc(OCCCN4CCCCC4)cc3F)nc2c1` [Example 20, 2-(4-Piperidinopropoxy-2-fluorophenyl)-7-methylimidazo[1,2-a]pyridine] the figure was 10 nM; with `Cc1ccn2cc(-c3ccc(OCCCN4CCCCCC4)cc3F)nc2c1` [Example 21], 15 nM.
On to `Cc1ccn2cc(-c3ccc(OCCCN4CCCCC4)cc3C)nc2c1` [Example 22, 2-(4-Piperidinopropoxy-2-methylphenyl)-7-methylimidazo[1,2-a]pyridine], for which the inhibitory constant (Ki) was 1 nM.
With `Cc1ccn2cc(-c3ccc(OCCCN4CCC(N5CCCCC5)CC4)cc3C)nc2c1` [Example 23, 2-(4-(4-Piperidino)piperidinopropoxy-2-methylphenyl)-7-methylimidazo[1,2-a]pyridine] the figure was 14 nM; with `Cc1ccn2cc(-c3ccc(OCCCN4CCCCCC4)cc3C)nc2c1` [Example 24], 0.5 nM.
With `Cc1ccn2cc(-c3ccc(OCCCNCc4ccc(F)cc4)cc3)nc2c1` [Example 25, 2-(4-(4-Fluorobenzyl)aminopropoxyphenyl)-7-methylimidazo[1,2-a]pyridine] the figure was 1500 nM.
The figure for `COc1cc(-c2cn3ccc(C)cc3n2)ccc1OCCCN1CCCCC1` [Example 26, 2-(4-Piperidinopropoxy-3-methoxyphenyl)-7-methylimidazo[1,2-a]pyridine] is 159 nM; for `Cc1cccn2cc(-c3ccc(NCCCN4CCCCC4)cc3)nc12` [Example 27, 2-[4-[3-(Piperidino)propylamino]phenyl]-8-methylimidazo[1,2-a]pyridine] it is 7 nM; for `Cc1cccn2cc(-c3ccc(NC(=O)CCN4CCCCC4)cc3)nc12` [Example 28, 2-[4-[3-(Piperidinyl)]propanamidophenyl]-8-methylimidazo[1,2-a]pyridine] it is 158 nM.
With `CCN(CC)CCCNc1ccc(-c2cn3cccc(C)c3n2)cc1` [Example 29, N,N-Diethyl-N′-[4-(8-methyl-imidazo[1,2-a]pyridin-2-yl)-phenyl]-propane-1,3-diamine], the inhibitory constant (Ki) was 9 nM.
For the compound `CCN(CC)CCCNc1ccc(-c2cn3ccc(C)cc3n2)cc1` [Example 30, N,N-Diethyl-N′-[4-(7-methyl-imidazo[1,2-a]pyridin-2-yl)-phenyl]-propane-1,3-diamine], the Ki is 3 nM.
On to `Cc1cccn2cc(-c3ccc(NCCN4CCCCC4)cc3)nc12` [Example 31, [4-(8-Methyl-imidazo[1,2-a]pyridin-2-yl)-phenyl]-(2-piperidin-1-yl-ethyl)-amine], for which the inhibition constant Ki was 8 nM.
For `Cc1cccn2cc(-c3ccc(NCCN4CCCC4)cc3)nc12` [Example 32, [4-(8-Methyl-imidazo[1,2-a]pyridin-2-yl)-phenyl]-(2-pyrrolidin-1-yl-ethyl)-amine], the Ki was 7 nM.
`Cc1ccn2cc(-c3ccc(C#CCCN4CCCCC4)cc3)nc2c1` [Example 33, 2-[4-[4-Piperidinobut-1-ynyl]phenyl]-7-methylimidazo[1,2-a]pyridine]: the inhibition constant Ki was 3 nM.
On to `Cc1ccn2cc(-c3ccc(C#CCCN4CCCC4)cc3)nc2c1` [Example 34, 2-[4-[4-Pyrrolidinobut-1-ynyl]phenyl]-7-methylimidazo[1,2-a]pyridine], for which the inhibitory constant (Ki) was 3 nM.
As to `Cc1ccn2cc(-c3ccc(C#CCCN4CCCCCC4)cc3)nc2c1` [Example 35], the inhibition constant Ki was 50 nM.
Consider `Cc1ccn2cc(-c3ccc(CCCCN4CCCC4)cc3)nc2c1` [Example 37, 2-[4-[4-Pyrrolidinobutyl]phenyl]-7-methylimidazo[1,2-a]pyridine], for which the inhibition constant (Ki) was 10 nM.
As for `Cc1ccn2cc(-c3ccc(CCCCN4CCCCC4)cc3)nc2c1` [Example 38, 7-Methyl-2-[4-(4-piperdin-1-yl-butyl)-phenyl]imidazo[1,2-a]pyridine], the Ki is 29 nM.
The figure for `Cc1ccn2cc(-c3ccc(CCCCN4CCCCCC4)cc3)nc2c1` [Example 39, 2-[4-(4-Azepan-1-yl-butyl)-phenyl]-7-methyl-imidazo[1,2-a]pyridine] is 57 nM.
Take `Cc1ccn2cc(-c3ccc(/C=C/CCN4CCCC4)cc3)nc2c1` [Example 40, 7-Methyl-2-[4-(4-pyrrolidin-1-yl-but-1-enyl)-phenyl]imidazo[1,2-a]pyridine]: the inhibition constant Ki was 17 nM.
